Patent US8778871B2 (Takeda Pharmaceutical Company Limited, priority 2004, dated 2014)
Non-standard residues stand in square brackets, D forms with d. Primed or numbered codes have the meaning given here. No end group written: not given here. *: point of attachment. Arg(Me) = CNC(=N)NCCC[C@H](N)C(=O)O; dNMeY = CN[C@H](Cc1ccc(O)cc1)C(=O)O; Cha = N[C@@H](CC1CCCCC1)C(=O)O; pGlu = O=C1CC[C@@H](C(=O)O)N1; Adipoyl′ = not defined here; Orn = NCCC[C@H](N)C(=O)O; Nva = CCC[C@H](N)C(=O)O; Propionyl = CCC(=O)*; azaGly = NNC(=O)O; For = O=C*

Experiments:
[1] = target: T1, hOT7T175 (Homo sapiens, UniProt Q969F8, L364H); assay type: cell-based; settings: hOT7T175/CHO, FLIPR, evaluation for 40 seconds after initiation of the reaction
T1 construct: expressed in transfected cells
T1 sequence (Q969F8 whole entry L364H): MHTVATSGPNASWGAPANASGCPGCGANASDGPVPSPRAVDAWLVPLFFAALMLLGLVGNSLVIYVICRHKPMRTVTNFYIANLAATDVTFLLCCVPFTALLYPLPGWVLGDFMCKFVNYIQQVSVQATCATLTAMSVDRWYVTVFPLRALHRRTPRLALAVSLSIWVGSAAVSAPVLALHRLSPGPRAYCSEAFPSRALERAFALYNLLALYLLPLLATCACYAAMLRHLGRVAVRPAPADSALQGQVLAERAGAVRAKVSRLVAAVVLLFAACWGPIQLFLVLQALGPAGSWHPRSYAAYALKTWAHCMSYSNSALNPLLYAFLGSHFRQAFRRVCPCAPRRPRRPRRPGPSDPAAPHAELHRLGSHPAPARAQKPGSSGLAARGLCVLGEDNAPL
Procedure: The intracellular Ca ion level-increasing activity was measured using FLIPR as in TEST EXAMPLE 2.

[2] = Action of reducing testosterone level in blood in mature male rat (1 mM peptide in 50% DMSO, ALZET osmotic pump); assay type: in vivo; settings: 1 mM peptide in 50% DMSO aqueous solution, ALZET osmotic pump s.c., six days
Procedure: The peptide was encapsulated in five ALZET osmotic pump (Model 2001, 0.2 ml of volume, releasing rate 0.001 ml/hr, DURECT Corporation). The ALZET pumps encapsulated with the peptide solution were implanted to dorsal subcutaneous of five male CD (SD) IGS rat at nine weeks age (Charles River Japan, Inc.) anesthesized with ether for one pump to one rat. Separately, for negative controls, the ALZET osmotic pumps encapsulated with distilled water were implanted to five male CD (SD) IGS rat (Charles River Japan, Inc.) The rats were bred for six days under the normal conditions. After weighing, blood was collected by decapitation. To 1 ml of blood, 0.03 ml of aprotinin (Trasylol, Byer) solution containing 0.1 g/ml EDTA 2Na was added. The plasma was isolated by centrifugation at 1,800×g for 25 minutes and collected. The thus obtained plasma, 0.05 ml was effected by radioimmunoassay. (DPC Total Testosterone Kit, Diagnostic Products Corporation) to measure testosterone level in blood of each rat. The value beneath measuring limit of radioimmunoassay (0.04 ng/ml as concentration of plasma) was treated as zero. The mean values for testosterone level of five rats, to which the peptide was given, was calculated and the relative value (percentage) for the mean values of testosterone level of five rats, to which distilled watrer was given, was estimated.

[3] = target: T2, hOT7T175 (Homo sapiens, UniProt Q969F8); assay: Intracellular Ca ion level-increasing activity using FLIPR (180 seconds; specific activity to Metastin (1-54)); assay type: cell-based; settings: hOT7T175/CHO, change in intracellular calcium ion level for 180 seconds, Tables 21-23
T2 construct: expressed in transfected cells
T2 sequence (Q969F8 whole entry L364H): as above

| Substance | Specific Act. (EC50/MS10 EC50) [1] | Testosterone level in Blood [2] [%] | intracellular Ca ion level-increasing activity [specific activity to Metastin (1-54)] [3] |
| --- | --- | --- | --- |
| D-Tyr-D-Pya(4)-Asn-Thr-Phe-AzaGly-Leu-Arg(Me)-Trp-NH2 [Compound No. 501] | 1.1 | 2 | 10 |
| Ac-D-Tyr-Pro-Asn-Thr-Phe-AzaGly-Leu-Arg(Me)-Trp-NH2 (Ac-[dY]PNTF[azaGly]L[Arg(Me)]W-NH2; SMILES CNC(=N)NCCC[C@H](NC(=O)[C@H](CC(C)C)NC(=O)NNC(=O)[C@H](Cc1ccccc1)NC(=O)[C@@H](NC(=O)[C@H](CC(N)=O)NC(=O)[C@@H]1CCCN1C(=O)[C@@H](Cc1ccc(O)cc1)NC(C)=O)[C@@H](C)O)C(=O)N[C@@H](Cc1c[nH]c2ccccc12)C(N)=O) [Compound No. 657] | 1.1 | 2 |  |
| Ac-D-Tyr-D-Tyr-D-Trp-Asn-Thr-Phe-AzaGly-Leu-Arg(Me)-Trp-NH2 (Ac-[dY][dY][dW]NTF[azaGly]L[Arg(Me)]W-NH2; SMILES CNC(=N)NCCC[C@H](NC(=O)[C@H](CC(C)C)NC(=O)NNC(=O)[C@H](Cc1ccccc1)NC(=O)[C@@H](NC(=O)[C@H](CC(N)=O)NC(=O)[C@@H](Cc1c[nH]c2ccccc12)NC(=O)[C@@H](Cc1ccc(O)cc1)NC(=O)[C@@H](Cc1ccc(O)cc1)NC(C)=O)[C@@H](C)O)C(=O)N[C@@H](Cc1c[nH]c2ccccc12)C(N)=O) [Compound No. 651] | 0.7 | 2 |  |
| Ac-[dY][dA]NTF[azaGly]L[Arg(Me)]W-NH2 [Compound No. 625] | 2.8 | 2 |  |
| Ac-[dNMeY][dW]NTF[azaGly]L[Arg(Me)]W-NH2 [Compound No. 602] | 2.4 | 2 |  |
| Tyr-D-Tyr-D-Trp-Asn-Thr-Phe-AzaGly-Leu-Arg(Me)-Trp-NH2 (Y[dY][dW]NTF[azaGly]L[Arg(Me)]W-NH2; N-terminus assumed; SMILES CNC(=N)NCCC[C@H](NC(=O)[C@H](CC(C)C)NC(=O)NNC(=O)[C@H](Cc1ccccc1)NC(=O)[C@@H](NC(=O)[C@H](CC(N)=O)NC(=O)[C@@H](Cc1c[nH]c2ccccc12)NC(=O)[C@@H](Cc1ccc(O)cc1)NC(=O)[C@@H](N)Cc1ccc(O)cc1)[C@@H](C)O)C(=O)N[C@@H](Cc1c[nH]c2ccccc12)C(N)=O) [Compound No. 675] | 0.8 | 2 |  |
| Ac-D-Trp-D-Trp-Asn-Thr-Phe-AzaGly-Leu-Arg(Me)-Trp-NH2 (Ac-[dW][dW]NTF[azaGly]L[Arg(Me)]W-NH2; SMILES CNC(=N)NCCC[C@H](NC(=O)[C@H](CC(C)C)NC(=O)NNC(=O)[C@H](Cc1ccccc1)NC(=O)[C@@H](NC(=O)[C@H](CC(N)=O)NC(=O)[C@@H](Cc1c[nH]c2ccccc12)NC(=O)[C@@H](Cc1c[nH]c2ccccc12)NC(C)=O)[C@@H](C)O)C(=O)N[C@@H](Cc1c[nH]c2ccccc12)C(N)=O) [Compound No. 663] | 0.8 | 2 |  |
| Ac-[dY][dK]NTF[azaGly]L[Arg(Me)]W-NH2 [Compound No. 629] | 3.4 | 2 |  |
| Ac-[dY][dW]NTF[azaGly]L[Arg(Me)]Y-NH2 [Compound No. 591] | 1.2 | 2 |  |
| Adipoyl-D-Trp-Asn-Thr-Phe-AzaGly-Leu-Arg(Me)-Trp-NH2 ({Adipoyl′}-[dW]NTF[azaGly]L[Arg(Me)]W-NH2) [Compound No. 671] | 3.6 | 2 |  |
| Ac-[dK][dW]NTF[azaGly]L[Arg(Me)]W-NH2 [Compound No. 621] | 1.9 | 2 |  |
| 6-Aminocaproyl-D-Trp-Asn-Thr-Phe-AzaGly-Leu-Arg(Me)-Trp-NH2 ({6‑Aminocaproyl}-[dW]NTF[azaGly]L[Arg(Me)]W-NH2) [Compound No. 674] | 2 | 2 |  |
| Ac-D-Tyr-D-Pya(4)-Asn-Thr-Phe(4F)-AzaGly-Leu-Arg(Me)-Trp-NH2 [Compound No. 638] | 1.7 | 2 |  |
| Ac-[dY][dW]NTF[azaGly]L[Orn]W-NH2 [Compound No. 599] | 0.5 | 2 |  |
| Ac-[dY][dW]NTFGL[Arg(Me)]W-NH2 [Compound No. 598] | 0.3 | 2 |  |
| Ac-G[dY][dW]NTF[azaGly]L[Arg(Me)]W-NH2 [Compound No. 649] | 1 | 2 |  |

| Substance | Specific Act. (EC50/MS10 EC50) [1] | Testosterone level in Blood [2] [%] | intracellular Ca ion level-increasing activity [specific activity to Metastin (1-54)] [3] |
| --- | --- | --- | --- |
| Ac-D-Tyr-D-Pya(3)-Asn-Thr-Phe-AzaGly-Leu-Arg(Me)-Trp-NH2 [Compound No. 660] | 1.1 | 2 |  |
| Ac-D-Tyr-D-Pya(2)-Asn-Thr-Phe-AzaGly-Leu-Arg(Me)-Trp-NH2 [Compound No. 658] | 0.4 | 2 |  |
| pGlu-D-Tyr-D-Trp-Asn-Thr-Phe-AzaGly-Leu-Arg(Me)-Trp-NH2 ([pGlu][dY][dW]NTF[azaGly]L[Arg(Me)]W-NH2; SMILES CNC(=N)NCCC[C@H](NC(=O)[C@H](CC(C)C)NC(=O)NNC(=O)[C@H](Cc1ccccc1)NC(=O)[C@@H](NC(=O)[C@H](CC(N)=O)NC(=O)[C@@H](Cc1c[nH]c2ccccc12)NC(=O)[C@@H](Cc1ccc(O)cc1)NC(=O)[C@@H]1CCC(=O)N1)[C@@H](C)O)C(=O)N[C@@H](Cc1c[nH]c2ccccc12)C(N)=O) [Compound No. 652] | 0.9 | 2 |  |
| For-[dY][dW]NTF[azaGly]L[Arg(Me)]W-NH2 [Compound No. 612] | 0.8 | 2 |  |
| 3-Pyridinepropionyl-D-Trp-Asn-Thr-Phe-AzaGly-Leu-Arg(Me)-Trp-NH2 ({3‑Pyridinepropionyl}-[dW]NTF[azaGly]L[Arg(Me)]W-NH2) [Compound No. 670] | 0.9 | 2 |  |
| Ac-D-Tyr-D-Trp-Asn-Thr-Phe-AzaGly-Leu-Arg(Me2)sym-Trp-NH2 [Compound No. 608] | 2.2 | 2 |  |
| Ac-Y[dW]NTF[azaGly]L[Arg(Me)]W-NH2 [Compound No. 615] | 0.7 | 2 |  |
| Ac-[dA][dW]NTF[azaGly]L[Arg(Me)]W-NH2 [Compound No. 616] | 1.1 | 2 |  |
| Ac-D-Tyr-D-Trp-Asn-Thr-Phe-AzaGly-Nva-Arg(Me)-Trp-NH2 (Ac-[dY][dW]NTF[azaGly][Nva][Arg(Me)]W-NH2; SMILES CCC[C@H](NC(=O)NNC(=O)[C@H](Cc1ccccc1)NC(=O)[C@@H](NC(=O)[C@H](CC(N)=O)NC(=O)[C@@H](Cc1c[nH]c2ccccc12)NC(=O)[C@@H](Cc1ccc(O)cc1)NC(C)=O)[C@@H](C)O)C(=O)N[C@@H](CCCNC(=N)NC)C(=O)N[C@@H](Cc1c[nH]c2ccccc12)C(N)=O) [Compound No. 677] | 0.3 | 2 |  |
| Ac-[dY][dW]NTF[azaGly]L[Arg(Me)][Cha]-NH2 [Compound No. 595] | 11.4 | 3 |  |
| Ac-[dY]WNTF[azaGly]L[Arg(Me)]W-NH2 [Compound No. 623] | 0.6 | 2 |  |
| Propionyl-[dY][dW]NTF[azaGly]L[Arg(Me)]W-NH2 [Compound No. 613] | 0.4 | 2 |  |
| Ac-D-Tyr-D-Trp-Asn-Thr-Pya(4)-AzaGly-Leu-Arg(Me)-Trp-NH2 [Compound No. 635] | 1.4 | 2 |  |
| Ac-[dY][dW]NTF[azaGly]V[Arg(Me)]W-NH2 [Compound No. 642] | 3.7 | 2 |  |
| Ac-[dY][dE]NTF[azaGly]L[Arg(Me)]W-NH2 [Compound No. 630] | 4.2 | 2 |  |
